ChEMBL document CHEMBL1151947, “Synthesis, potency, and in vivo evaluation of 2-piperazin-1-ylquinoline analogues as dual serotonin reuptake inhibitors and serotonin 5-HT1A receptor antagonists” (J Med Chem, 2009)

What was measured:
[1] = Oral bioavailability in rat at 10 mg/kg; assay type: ADME, organism-based; conditions: in vivo
[2] = Cmax in rat at 10 mg/kg, po; assay type: ADME, organism-based; set-up: dose 10 mg/kg, route oral; conditions: in vivo
[3] = target: T1, 5-hydroxytryptamine receptor 1A (Homo sapiens) (UniProt P08908); assay: Antagonist activity at human 5HT1A receptor expressed in CHO cells assessed as inhibition of [35S]GTPgammaS binding relative to control; assay type: functional, cell-based
T1 sequence (whole entry): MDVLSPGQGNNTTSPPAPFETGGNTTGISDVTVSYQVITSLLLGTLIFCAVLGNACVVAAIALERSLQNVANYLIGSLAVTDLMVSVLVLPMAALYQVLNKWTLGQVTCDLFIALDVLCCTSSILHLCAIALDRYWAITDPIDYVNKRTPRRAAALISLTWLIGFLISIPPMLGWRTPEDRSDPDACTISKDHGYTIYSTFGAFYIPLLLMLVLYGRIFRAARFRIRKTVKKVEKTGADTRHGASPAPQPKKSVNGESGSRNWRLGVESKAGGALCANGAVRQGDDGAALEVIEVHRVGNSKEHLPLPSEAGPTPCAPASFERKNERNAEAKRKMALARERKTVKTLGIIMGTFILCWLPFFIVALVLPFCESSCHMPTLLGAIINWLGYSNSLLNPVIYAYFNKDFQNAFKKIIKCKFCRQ

[4] = AUC in rat at 10 mg/kg, po; assay type: ADME, organism-based; set-up: dose 10 mg/kg, route oral; conditions: plasma
[5] = target: T2, Cytochrome P450 2A6 (Homo sapiens, UniProt P11509); assay: Inhibition of CYP2A6 in human liver microsomes upto 100 uM; assay type: ADME, Microsome
T2 sequence (P11509 whole entry): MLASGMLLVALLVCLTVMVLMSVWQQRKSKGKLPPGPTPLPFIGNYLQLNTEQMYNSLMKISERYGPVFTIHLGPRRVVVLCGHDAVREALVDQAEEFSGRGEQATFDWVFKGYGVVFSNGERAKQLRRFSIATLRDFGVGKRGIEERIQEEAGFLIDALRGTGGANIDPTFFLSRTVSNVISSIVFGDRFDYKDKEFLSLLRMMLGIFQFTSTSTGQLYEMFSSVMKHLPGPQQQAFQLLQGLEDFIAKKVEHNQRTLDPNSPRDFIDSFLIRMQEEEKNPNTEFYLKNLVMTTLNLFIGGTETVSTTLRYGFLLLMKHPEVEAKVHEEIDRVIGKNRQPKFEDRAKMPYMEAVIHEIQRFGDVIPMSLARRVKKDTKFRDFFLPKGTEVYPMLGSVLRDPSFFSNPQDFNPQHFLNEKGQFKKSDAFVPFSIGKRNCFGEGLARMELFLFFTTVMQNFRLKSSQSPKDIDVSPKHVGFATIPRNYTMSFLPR

[6] = system: Rattus norvegicus; assay: Initial plasma concentration in rat at 1 mg/kg, iv; assay type: ADME, organism-based; set-up: dose 1 mg/kg, route intravenous; conditions: in vivo
[7] = target: Cytochrome P450 3A4 (Homo sapiens, UniProt P08684); assay: Inhibition of CYP3A4 in human liver microsomes; assay type: ADME, Microsome
Cytochrome P450 3A4, sequence (P08684 whole entry): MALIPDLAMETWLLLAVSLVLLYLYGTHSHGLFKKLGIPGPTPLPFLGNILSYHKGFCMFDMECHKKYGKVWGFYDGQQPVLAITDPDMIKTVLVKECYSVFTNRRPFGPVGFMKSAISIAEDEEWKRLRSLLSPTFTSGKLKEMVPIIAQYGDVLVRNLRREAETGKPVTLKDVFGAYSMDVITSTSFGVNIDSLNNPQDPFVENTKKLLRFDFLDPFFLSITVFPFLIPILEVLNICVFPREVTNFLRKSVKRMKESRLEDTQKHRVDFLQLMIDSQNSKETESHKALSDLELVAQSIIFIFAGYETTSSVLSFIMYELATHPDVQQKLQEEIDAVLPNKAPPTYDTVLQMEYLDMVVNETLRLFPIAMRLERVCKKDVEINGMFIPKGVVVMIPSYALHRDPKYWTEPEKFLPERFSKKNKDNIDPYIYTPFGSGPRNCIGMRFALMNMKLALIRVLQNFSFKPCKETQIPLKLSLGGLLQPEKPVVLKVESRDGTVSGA

[8] = Tmax in rat at 10 mg/kg, po; assay type: ADME, organism-based; set-up: dose 10 mg/kg, route oral; conditions: in vivo
[9] = system: Rattus norvegicus; assay: Antidepressant like activity in sc dosed rat resident-intruder model assessed as effect on total behavior score administered 30 mins prior to test; assay type: functional; conditions: read-out: ID50 (the source's name)
[10] = Tmax in rat at 3 mg/kg, po; assay type: ADME, organism-based; set-up: dose 3 mg/kg, route oral; conditions: in vivo
[11] = target: D(2) dopamine receptor (Homo sapiens, UniProt P14416); assay: Displacement of [3H]spiperone from human dopamine D2 receptor expressed in CHO cells; assay type: cell-based
D(2) dopamine receptor, sequence (P14416 whole entry): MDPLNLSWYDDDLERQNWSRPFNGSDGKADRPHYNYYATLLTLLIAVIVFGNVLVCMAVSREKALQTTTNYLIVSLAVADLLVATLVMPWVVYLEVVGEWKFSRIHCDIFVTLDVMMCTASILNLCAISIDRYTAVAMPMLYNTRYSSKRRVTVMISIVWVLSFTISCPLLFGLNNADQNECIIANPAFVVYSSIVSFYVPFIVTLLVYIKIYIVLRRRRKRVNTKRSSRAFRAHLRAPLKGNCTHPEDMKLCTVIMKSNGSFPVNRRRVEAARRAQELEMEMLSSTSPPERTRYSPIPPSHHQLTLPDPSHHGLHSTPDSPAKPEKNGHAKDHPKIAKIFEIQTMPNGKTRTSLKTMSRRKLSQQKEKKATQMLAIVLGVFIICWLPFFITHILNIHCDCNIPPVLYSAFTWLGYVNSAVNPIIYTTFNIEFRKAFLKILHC

[12] = system: Rattus norvegicus; assay: AUC in rat at 1 mg/kg, iv; assay type: ADME, organism-based, Plasma; set-up: dose 1 mg/kg, route intravenous; conditions: in vivo
[13] = target: T3, Cytochrome P450 2C8 (Homo sapiens, UniProt P10632); assay: Inhibition of CYP2C8 in human liver microsomes; assay type: ADME, Microsome
T3 sequence (P10632 whole entry): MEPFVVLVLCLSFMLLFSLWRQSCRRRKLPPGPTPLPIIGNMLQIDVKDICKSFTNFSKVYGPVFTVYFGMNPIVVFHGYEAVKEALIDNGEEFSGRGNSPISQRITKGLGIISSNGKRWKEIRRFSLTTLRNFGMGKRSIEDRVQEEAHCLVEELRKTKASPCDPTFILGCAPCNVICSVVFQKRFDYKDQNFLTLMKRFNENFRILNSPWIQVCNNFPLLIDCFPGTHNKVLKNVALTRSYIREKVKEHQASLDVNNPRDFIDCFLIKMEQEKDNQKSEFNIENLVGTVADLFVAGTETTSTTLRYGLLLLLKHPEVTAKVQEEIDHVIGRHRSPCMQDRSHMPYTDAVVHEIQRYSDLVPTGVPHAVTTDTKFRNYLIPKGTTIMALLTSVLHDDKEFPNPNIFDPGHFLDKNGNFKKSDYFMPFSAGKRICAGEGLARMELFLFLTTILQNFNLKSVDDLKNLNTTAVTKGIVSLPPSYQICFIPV

[14] = Cmax in rat at 3 mg/kg, po; assay type: ADME, organism-based; set-up: dose 3 mg/kg, route oral; conditions: in vivo
[15] = Elimination half life in rat at 3 mg/kg, po; assay type: ADME, organism-based; set-up: dose 3 mg/kg, route oral; conditions: in vivo, read-out: beta t1/2 (converted)
[16] = target: Cytochrome P450 2C19 (Homo sapiens, UniProt P33261); assay: Inhibition of CYP2C19 in human liver microsomes; assay type: ADME, Microsome
Cytochrome P450 2C19, sequence (P33261 whole entry): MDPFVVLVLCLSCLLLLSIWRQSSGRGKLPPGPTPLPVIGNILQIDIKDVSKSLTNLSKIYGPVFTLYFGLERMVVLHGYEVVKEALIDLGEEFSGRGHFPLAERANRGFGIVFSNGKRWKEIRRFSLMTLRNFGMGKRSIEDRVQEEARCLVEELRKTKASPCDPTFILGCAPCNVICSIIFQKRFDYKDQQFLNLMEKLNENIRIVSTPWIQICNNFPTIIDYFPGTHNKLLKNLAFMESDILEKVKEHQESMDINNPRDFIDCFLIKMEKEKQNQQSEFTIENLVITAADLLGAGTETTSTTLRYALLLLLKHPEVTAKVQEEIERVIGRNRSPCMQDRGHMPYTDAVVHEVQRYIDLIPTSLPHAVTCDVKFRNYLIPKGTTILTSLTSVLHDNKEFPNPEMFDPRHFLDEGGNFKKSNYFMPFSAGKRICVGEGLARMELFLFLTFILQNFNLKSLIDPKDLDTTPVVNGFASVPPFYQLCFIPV

[17] = Elimination half life in rat at 1 mg/kg, iv; assay type: ADME, organism-based; set-up: dose 1 mg/kg, route intravenous; conditions: in vivo, read-out: beta t1/2 (converted)

**Q.** With `Cc1ccc2c3c(ccc2n1)OC[C@H](CN1CCN(c2ccc4cc(C#N)ccc4n2)CC1)O3` as the compound, how does the bioavailability [1] read?
**A.** 36%

**Q.** What about the Cmax [2] of the same compound?
**A.** 815 ng/mL

**Q.** And the Imax [3]?
**A.** 88.6%

**Q.** What about the AUC [4] of the same compound?
**A.** 4620 ng·h/mL

**Q.** What about the “inhibition (INH)” value [5] of the same compound?
**A.** Not Active

**Q.** And the C0 [6]?
**A.** 903 ng/mL

**Q.** And the IC50 [7]?
**A.** 10 µM

**Q.** What about the Tmax [8] of the same compound?
**A.** 1 h

**Q.** And the ED50 [9]?
**A.** > 30 mg/kg

**Q.** And the Tmax [10]?
**A.** 1.3 h

**Q.** What about the Ki [11] of the same compound?
**A.** 1.31 µM

**Q.** What about the AUC [12] of the same compound?
**A.** 1268 ng·h/mL

**Q.** And the IC50 [13]?
**A.** 29 µM

**Q.** And the Cmax [14]?
**A.** 456 ng/mL

**Q.** What about the half-life [15] of the same compound?
**A.** 3.8 h

**Q.** And the IC50 [16]?
**A.** 98 µM

**Q.** What about the half-life [17] of the same compound?
**A.** 4 h
